Experimental data taken from US20150018384A1, “TREATMENT FOR HIGH CHOLESTEROL” (FibroGen, Inc., priority 2012, published 2015).

What was measured:
PHD3 = PHD3 (Homo sapiens, UniProt Q9H6Z9); assay: HIF prolyl hydroxylase enzyme assay, PHD3; assay type: biochemical
Text: Suitable assay methods are well known in the art.

[1] = tested on: non-dialysis chronic kidney disease (CKD) patients with anemia; assay: Study 1: Phase 2 study of compound A in non-dialysis CKD patients with anemia; assay type: in vivo, human
Procedure: The primary objectives of this study were to evaluate the efficacy and safety of the compound in the correction of anemia (i.e. increasing hemoglobin levels) in non-dialysis CKD patients. The study included six dosing cohorts of approximately 24 subjects each. […] Cohort A and cohort B both received a weight-adjusted dose of approximately 1 mg/kg, three times a week for 16 weeks; the dosing in cohort B was reduced to twice a week once anemia was corrected. Cohort C and cohort D received a fixed dose of 50 mg or 100 mg, respectively, three times a week, for 24 weeks. Cohort E received a weight-adjusted dose of approximately 1 mg/kg twice a week, reduced to once a week once anemia was corrected. Cohort F received a fixed dose of 70 mg, three times a week.
Total cholesterol and lipid panels were measured by standard procedures.
Total cholesterol was measured from all subjects in Study 1 or Study 2 as part of the chemistry panel at prespecified time points. […] Total cholesterol decreased initially with treatment, reached a plateau where it remained during treatment, and then returned to baseline after treatment ends.
Frozen serum samples, collected from subjects in Study 1 or Study 2, were selected for the lipid panel analysis based on the following criteria: 1) with matched baseline (D1W1) and; 2) at least one other time point. The complete lipid panel includes: total cholesterol (TC), HDL, LDL-measured, Triglycerides and VLDL (Calculated). Ratio of HDL/LDL or LDL/HDL were analyzed.
A total of n=9 subjects samples were selected and assayed for the complete lipid panel as described above. Subjects on this study protocol were not required to fast nor have any diet restrictions.

[2] = tested on: subjects with end-stage renal disease (ESRD) receiving maintenance hemodialysis; assay: Study 2: phase 2 study of compound A vs EPO in ESRD subjects on maintenance hemodialysis; assay type: in vivo, human
Text: A total of n=20 subjects were selected and assayed for the complete lipid panel as described above. Subjects on this study protocol were not required to fast nor have any diet restrictions.

cynomolgus monkeys = assay: Cholesterol levels after repeated oral administration in monkey toxicity studies; assay type: in vivo, cynomolgus monkey
Procedure: During these studies monkeys were fasted prior to each blood collection. Plasma samples were then evaluated at pre-dose and at different time-points for levels of total cholesterol.

[3] = tested on: subjects with chronic kidney disease (CKD); assay: Phase 2b study in CKD subjects with anemia, Compound A vs placebo; assay type: in vivo, human
Procedure: The Hb target was 11 g/dL. The primary efficacy endpoint was the maximum change of Hb from baseline by Week 9.
Subjects were stratified by baseline (BL) total cholesterol (either >200 mg/dL or s 200 mg/dL) and analyzed for mean total cholesterol and LDL-C over the course of treatment.

DIO mice = assay: High cholesterol mouse model, diet induced obesity (DIO) mice; conditions: another study, 60 mg/kg three times a week for two weeks, n=10/group, FIG. 24
Text: Ten-week-old male apoE knockout mice (Jackson Laboratories, Bar Harbor, Me.) were fed a normal chow diet (0.02% cholesterol, 13.5% fat by weight; LabDiet). Ten-week-old male diet induced obese mice (DIO Mice, Jackson Laboratories, Bar Harbor, Me.) were fed a high fat diet (0.095% cholesterol, 60% fat by weight; ResearchDiets) starting at six-weeks-old. After 2 weeks of acclimatization, whole blood was collected for baseline measurement before administration of test reagents. All test reagents were administered orally by gavage needle three times a week for 2 weeks for the apoE mice, and three times a week for 4 weeks for the DIO mice. The animals were sacrificed at end of study. Whole blood was collected weekly in Heparin-tube by submandibular bleeding and isolated plasma was stored at −80° C. for measurement of total cholesterol.
DIO mice as described in Example 10 were used to test the effect of various compounds on cholesterol levels. Compound (60 mg/kg) or vehicle was administered to the mice (n=10/group) three times a week for four weeks. A statin compound (rosuvastatin) was also tested. Blood samples were collected at weekly and total cholesterol blood levels were tested.

[4] = six subjects with identical time points, FIG. 7
[5] = BL total cholesterol >200 mg/dL, visit D1W1 (baseline)
[6] = BL total cholesterol >200 mg/dL, visit W9
[7] = BL total cholesterol ≦200 mg/dL, visit D1W1 (baseline)
[8] = BL total cholesterol ≦200 mg/dL, visit W9
[9] = n=20, 9 weeks vs baseline, FIG. 8A
[10] = orally three times a week for 8 weeks

PHD3, sequence (Q9H6Z9 whole entry): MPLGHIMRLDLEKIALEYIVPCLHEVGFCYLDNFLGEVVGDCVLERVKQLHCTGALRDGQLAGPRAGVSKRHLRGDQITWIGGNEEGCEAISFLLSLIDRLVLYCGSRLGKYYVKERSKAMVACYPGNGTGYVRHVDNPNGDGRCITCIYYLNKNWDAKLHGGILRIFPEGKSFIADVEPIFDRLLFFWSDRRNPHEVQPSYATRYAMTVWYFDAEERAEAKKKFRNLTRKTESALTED

- IC50 (PHD3): 200 to 2000 nM
SMILES: Cc1nc(C(=O)NCC(=O)O)c(O)c2ccc(Oc3ccccc3)cc12 [Compound A, [(4-Hydroxy-1-methyl-7-phenoxy-isoquinoline-3-carbonyl)-amino]-acetic acid]
- total cholesterol by baseline total cholesterol ≦200 or >200 mg/dL ([1]; Study 1, FIG. 5): total cholesterol is reduced in each group
- total cholesterol over time ([1]; all subjects from all cohorts (n=144), during study treatment, FIG. 1): significant decrease in total cholesterol
- LDL, lipid panel [1, 4]: reduce over the course of treatment
- total cholesterol, lipid panel [1, 4]: reduce over the course of treatment
- reduction in total cholesterol by baseline total cholesterol ≦200 or >200 mg/dL ([2]; 19-week study, FIGS. 6A and B): appears to be larger for the subjects with higher cholesterol at BL
- LDL [2, 5]: 203.40
- LDL change from BL [2, 5]: 0.00
- TC [2, 5]: 275.80
- TC change from BL [2, 5]: 0.00
- LDL [2, 6]: 164.20
- LDL change from BL [2, 6]: −39.20
- TC [2, 6]: 239.20
- TC change from BL [2, 6]: −36.60
- LDL [2, 7]: 81.20
- LDL change from BL [2, 7]: 0.00
- TC [2, 7]: 157.90
- TC change from BL [2, 7]: 0.00
- LDL [2, 8]: 62.20
- LDL change from BL [2, 8]: −19.00
- TC [2, 8]: 128.20
- TC change from BL [2, 8]: −29.70
- hemoglobin levels ([2]; ESRD patients on dialysis, 0.8 to 3.0 mg/kg three times a week): effectively corrected hemoglobin levels
- total cholesterol, subjects with or without prior history of hyperlipidemia and/or hypercholesterolemia ([2]; Study 2 (6 weeks), FIG. 4): reduced the total cholesterol level of subjects in similar fashion
- HDL, lipid panel [2, 9]: slight decrease
- LDL, lipid panel [2, 9]: significant reduction
- VLDL, lipid panel [2, 9]: significant reduction
- total cholesterol, lipid panel [2, 9]: significant reduction
- triglycerides, lipid panel [2, 9]: significant reduction
- change in total cholesterol from baseline over time ([2]; treated for 19 weeks, FIG. 2): significant decrease in total cholesterol
- total cholesterol levels (cynomolgus monkeys; 22-week study, intermittent oral dosing 1, 10, 30 and 40 mg/kg, day 28 to day 152): dose-dependent decrease in cholesterol levels
- total cholesterol levels (cynomolgus monkeys; 22-week study, intermittent oral dosing 1, 10, 30 and 40 mg/kg, day 28 to day 152, listed as compound A): dose dependent decrease in total cholesterol
- total cholesterol levels (cynomolgus monkeys; 28-Day study, daily oral dosing 1, 10 and 30 mg/kg, day 28): dose-dependent decrease in cholesterol levels
- total cholesterol levels (cynomolgus monkeys; 28-Day study, daily oral dosing 1, 10 and 30 mg/kg, day 28, listed as compound A): dose dependent decrease in total cholesterol
- cholesterol (cynomolgus monkeys; additional monkey study, up to one year): decreases in cholesterol were observed and maintained for up to one year
- Mean BL LDL-C ([3]; baseline (pre-treatment)): 102.60 mg/dL
- Mean BL Total Cholesterol ([3]; baseline (pre-treatment)): 166.84 mg/dL
- Cholesterol total % change [3, 10]: −18.5%
- Cholesterol total change [3, 10]: -33.9 mg/dL
- HDL-C [3, 10]: decreased
- LDL Cholesterol % change [3, 10]: −23.2%
- LDL cholesterol change [3, 10]: -27.9 mg/dL
- percentage of subjects who achieved Hb response (Hb increase of >1 g/dL from baseline Hb) [3, 10]: 86.4%
- mean total cholesterol over the course of treatment ([3]; subjects stratified by BL total cholesterol ≦200 (n=48) or >200 mg/dL (n=13), FIG. 14): reduction
- mean LDL-C over the course of treatment ([3]; subjects stratified by BL total cholesterol ≦200 (n=48) or >200 mg/dL (n=13), FIG. 15): reduction
- total cholesterol levels compared to vehicle treated (DIO mice): statistically significant decrease in total cholesterol levels
